# Experimental data from patent US9126941B2, “Treatment of hyperproliferative disorders with diarylhydantoin compounds” (The Regents of the University of California, priority 2005, dated 2015).
# Entries after “also recorded” stand apart in the source; their conditions may differ.
# Tests used:
# [1] = test system: AR-overexpressed LNCaP xenograft tumors; assay: AR-overexpressed LNCaP xenograft model in castrated male SCID mice, oral once daily; type: in vivo; conditions: 1 mg per kg orally once daily, 44 days
# Procedure: FIG. 7. […] Mice with established LN-AR xenograft tumors were randomized and treated with indicated compounds orally once daily. Tumor size was measured by caliber.
# FIG. 8. […] The tumors were taken out from the mice after 44 days of treatment, tumor lysate was extracted, and PSA level in tissue lysate was determined by ELISA.
# First we examined this compound on xenograft tumors established from AR-overexpressed LNCaP cells. The engineered cells in Matrigel (Collaborative Biomedical) were injected subcutaneously into the flanks of the castrated male SCID mice. Tumor size was measured weekly in three dimensions using calipers. After xenograft tumors established (tumor size reached at least 40 mm^3), mice with tumors were randomized and treated with different doses of compounds orally once daily.
# [2] = test system: hormone refractory LAPC4 xenograft; assay: Hormone refractory LAPC4 xenograft model; type: in vivo, mice; conditions: 1 mg per kg orally once daily, 17 days
# Procedure: FIG. 9. […] (A), tumor size was measured by caliber. (B), the tumors were taken out from the mice after 17 days of treatment, tumor lysate was extracted, and PSA level in tissue lysate was determined by ELISA.
# This model was established from passaging of hormone sensitive prostate cancer in castrated mice, which mimics the clinical progression of prostate cancer (2).
# [3] = test system: LNCaP-AR xenograft tumors; assay: LNCaP-AR xenograft in SCID mice, tumor size and luciferase imaging (RD162); type: in vivo; conditions: for Tumor growth / tumor volume over time (FIG. 11): 10 or 50 mg/kg orally every day, 18 days; for Photon emission associated with luciferase activity (FIG. 12): day 18, 3 hours after last dose
# Procedure: FIG. 11 is a graph of tumor size. AR overexpressing LNCaP cells were injected in the flanks of castrated […] mice, subcutaneously. When tumors reached about 100 cubic mm, they were randomized into five groups. Each group had nine animals. […] The tumors were measured three-dimensionally, width, length and depth, using a caliper.
# FIG. 12 depicts experimental results of tumor size. At day 18, the animals were imaged via an optical CCD camera, 3 hours after last dose of treatment. A ROI was drawn over the tumor for luciferase activity measurement in photon/second. The right panels is a representation of the ROIs measurements.
# (A) The relative tumor volume as a function of time shown for each set of mice. (B) Images of each set of mice with photon emission associated with luciferase activity at day 31 shown as color contours. (C) Rate of photon emission associated with luciferase activity shown at several times for each set of mice.
# All animal experiments were performed in compliance with the guidelines of the Animal Research Committee of the University of California at Los Angeles. Animals were bought from Taconic and maintained in a laminar flow tower in a defined flora colony. LNCaP-AR and LNCaP-vector cells were maintained in RPMI medium supplemented with 10% FBS. 10^6 cells in 100 μl of 1:1 Matrigel to RPMI medium were injected subcutaneously into the flanks of intact or castrated male SCID mice. Tumor size was measured weekly in three dimensions (length×width×depth) using calipers. Mice were randomized to treatment groups when tumor size reached approximately 100 mm^3. Drugs were given orally every day at 10 mg/kg and 50 mg/kg. To obtain pharmacodynamic readout, the animals were imaged via an optical CCD camera, 3 hours after last dose of the treatment. A ROI is drawn over the tumor for luciferase activity measurement in photon/second. The right panels were a representation of the ROIs measurements.
# [4] = test system: castrated luciferase transgenic mice; assay: Castrated luciferase transgenic mice with implanted testosterone pellet, urogenital tract weight and photon emission; type: in vivo; conditions: 10 mg per kg per day, 14 days
# Text: FIG. 23 presents results of an experiment conducted with wild type nontransgenic mice (WT), castrated luciferase transgenic mice (Cast), and non-castrated luciferase transgenic mice (Intact). […] (A) Urogenital tract weight at 14 days. (B) Photon emission rate at 14 days.
# LNCaP cells = assay: MTS growth assay, hormone sensitive LNCaP cells; type: cell-based
# Procedure: FIG. 10. Inhibitory effect on growth of hormone sensitive prostate cancer cells. […] After 4 days of incubation, cell growth was measured by MTS assay.
# MCF7 = assay: Growth effect on MCF7 cells; type: cell-based; conditions: breast cancer cells
# SkBr3 = assay: Growth effect on SkBr3 cells; type: cell-based; conditions: breast cancer cells
# 3T3 = assay: Growth effect on 3T3 fibroblasts; type: cell-based; conditions: normal mouse fibroblast cell line
# DU-145 cells = assay: MTS growth assay, DU-145 cells; type: cell-based; conditions: prostate cancer cell line lacking AR expression
# AR [5] = biological target: T1, AR (Homo sapiens, UniProt P10275); assay: cell-based; type: cell-based
# T1 sequence (P10275 whole entry, looked up): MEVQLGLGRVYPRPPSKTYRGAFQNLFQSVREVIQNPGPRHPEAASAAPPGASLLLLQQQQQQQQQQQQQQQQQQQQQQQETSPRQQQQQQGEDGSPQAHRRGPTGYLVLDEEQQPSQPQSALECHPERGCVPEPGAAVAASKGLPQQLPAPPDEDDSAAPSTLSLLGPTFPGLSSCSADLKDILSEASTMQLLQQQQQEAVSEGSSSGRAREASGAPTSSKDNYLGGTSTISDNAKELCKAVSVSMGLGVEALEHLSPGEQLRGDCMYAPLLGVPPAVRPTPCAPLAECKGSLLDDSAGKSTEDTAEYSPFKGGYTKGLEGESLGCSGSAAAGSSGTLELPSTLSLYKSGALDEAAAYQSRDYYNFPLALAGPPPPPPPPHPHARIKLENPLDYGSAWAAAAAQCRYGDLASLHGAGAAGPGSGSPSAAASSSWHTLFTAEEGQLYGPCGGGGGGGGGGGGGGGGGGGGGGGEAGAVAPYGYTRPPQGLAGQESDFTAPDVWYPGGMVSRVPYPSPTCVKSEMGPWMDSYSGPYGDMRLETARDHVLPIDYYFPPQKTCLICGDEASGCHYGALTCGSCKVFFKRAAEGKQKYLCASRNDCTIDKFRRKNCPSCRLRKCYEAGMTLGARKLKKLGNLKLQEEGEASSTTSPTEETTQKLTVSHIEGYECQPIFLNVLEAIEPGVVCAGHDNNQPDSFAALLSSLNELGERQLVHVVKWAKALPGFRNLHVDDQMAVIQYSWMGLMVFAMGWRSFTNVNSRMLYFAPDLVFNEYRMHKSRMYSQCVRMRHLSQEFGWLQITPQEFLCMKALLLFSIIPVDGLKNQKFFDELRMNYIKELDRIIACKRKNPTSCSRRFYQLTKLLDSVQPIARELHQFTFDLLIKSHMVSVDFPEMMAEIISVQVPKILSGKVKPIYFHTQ
# Procedure: The compounds were subjected to tests using an artificial AR response reporter system in a hormone refractory prostate cancer cell line. […] After two days of incubation, reporter activities were assayed.
# [6] = Ranking of compounds in tiers for utility in treating prostate cancer; conditions: assay not specified
# Text: The placement of compounds into tiers was based on available data coupled with analytical judgment. Data considered included in vitro assays (AR response reporter system in LNCaP cell line, PSA level measurement, MTS mitochondrial assay) and in vivo experiments (tumor size measured directly or by emission induced by luciferase reporter gene, pharmacokinetic assays based on blood plasma levels). Not every compound was subjected to each assay. […] Judgment was applied in ranking compounds relative to each other for their utility in treating prostate cancer, in particular when ranking two compounds for which the same experiments were not performed. Characteristics considered in establishing the ranking include AR antagonism activity, lack of AR agonism in hormone refractory cells, prevention of tumor growth, tumor shrinkage, and pharmacokinetic behavior, with a longer residence time in blood being advantageous.
# [7] = Pharmacokinetics in FVB mice, drug concentration by HPLC; conditions: for Css, 10 mg/kg [μM] / Css, 25 mg/kg [μM] / Css, 50 mg/kg [μM]: steady-state concentration in mice plasma
# Procedure: Mice were divided into groups of three for each time points. Two mice were not treated with drug and two other mice were treated with vehicle solution. […]
# The drug was dissolved in a mixture 1:5:14 of DMSO:PEG400:H20. (Vehicle solution) and was administered into mice through the tail vein. The animals are warmed under a heat lamp for approximately 20 minutes prior to treatment to dilate their tail vein. […] After drug administration, the animals were euthanized via CO2 inhalation at different timepoints: […], […], 2 h, 6 h, 16 h. Animals were immediately bleed after exposure to CO2 via cardiac puncture (1 ml BD syringe+27 G ⅝ needle).
# The samples for HPLC analysis were prepared according to the following procedure: • Blood cells were separated from serum by centrifugation. • To 400 μl of serum were added 80 μl of a 10 μM solution of an internal standard and 520 μl of acetonitrile. Precipitation occurred. • The mixture was vortexed for 3 minutes and then placed under ultrasound for 30 minutes. • The solid particles were filtered off or were separated by centrifugation. • The filtrate was dried under an argon flow to dryness.
# AR [8] = biological target: T1, AR; assay: cell-based; type: cell-based; conditions: for PSA levels of LN-AR cells (FIG. 14): various doses
# Procedure: It is well established that PSA levels are indicators of AR activities in prostate cancer. […] The LNCaP-AR cells are a line of lymph node carcinoma of prostate cells transduced with a plasmid that makes express androgen receptors. […] After four days incubation, secreted PSA levels were assayed using PSA ELISA kits (American Qualex, San Clemente, Calif.)
# L1AR cell line = assay: Luciferase activity of the L1AR cell line; type: cell-based; conditions: at a given concentration, 125 nmol to 1000 nmol
# [9] = 10 mg per kg per day, LN-AR (HR) in SCID mice
structure (smiles),measurement,setting,value
"CC(O)(CS(=O)(=O)c1ccc(F)cc1)C(=O)Nc1ccc(C#N)c(C(F)(F)F)c1 (centres unmarked) [Bicalutamide, N-[4-cyano-3-(trifluoromethyl)phenyl]-3-[(4-fluorophenyl)sulfonyl]-2-hydroxy-2-methylpropanamide, reference compound]",Growth of LNCaP-AR xenograft tumors (FIG. 7a),[1],did not inhibit growth
same,Growth of hormone refractory LAPC4 xenograft (FIG. 9a),[2],did not inhibit
same,PSA expression in hormone refractory LAPC4 xenograft (FIG. 9b),[2],did not inhibit
same,Tumor growth / tumor volume over time (FIG. 11),[3],tumors continued to grow
same,Photon emission associated with luciferase activity (FIG. 12),[3],remained about the same or increased
same,Photon emission associated with luciferase activity (FIG. 23),[4],decrease
same,Urogenital tract weight (FIG. 23),[4],decrease
same,Inhibition of hormone sensitive LNCaP cell growth (MTS),LNCaP cells; dose-dependent,mildly inhibited
"Cc1ccc(N2C(=S)N(c3ccc(C#N)c(C(F)(F)F)c3)C(=O)C2(C)C)cc1 [RD7, 4-[3-(4-methylphenyl)-4,4-dimethyl-5-oxo-2-thioxoimidazolidin-1-yl]-2-trifluoromethyl-benzonitrile]",Growth effect on MCF7,MCF7,no growth effect
same,Growth effect on SkBr3,SkBr3,no growth effect
same,Growth effect on 3T3,3T3,no growth effect
same,Growth inhibitory effect on DU-145 cells,DU-145 cells,no growth inhibitory effect
same,Potency relative to bicalutamide on hormone sensitive prostate cancer cells,"LNCaP cells; FIG. 10, MTS",10 fold
"N#Cc1ccc(N2C(=S)N(c3ccc(C#N)c(C(F)(F)F)c3)C(=O)C23CCCC3)cc1 [RD54, 4-[1-(4-cyanophenyl)-4-oxo-2-thioxo-1,3-diazaspiro[4.4]non-3-yl]-2-trifluoromethylbenzonitrile]",IC50,AR [5],469 nM
same,Indication of agonism,[6],could act as an agonist
Cc1ccc(N2C(=S)N(c3ccc(C#N)c(Cl)c3)C(=O)C2(C)C)cc1 [RD72],"Activity (words, overall)",[6],very poor activity
Cc1ccc(N2C(=S)N(c3ccc(C#N)c(I)c3)C(=O)C2(C)C)cc1 [RD100],"Activity (words, overall)",[6],good activity
"CNC(=O)CCCc1ccc(N2C(=S)N(c3ccc(C#N)c(C(F)(F)F)c3)C(=O)C23CCC3)cc1 [RD131, 4-{4-[7-(4-Cyano-3-trifluoromethylphenyl)-8-oxo-6-thioxo-5,7-diaza-spiro[3.4]oct-5-yl]phenyl}-N-methyl-butyramide]",IC50,AR [5],92 nM
same,IC50 compared with bicalutamide (FIG. 15),AR [5]; assay not specified,much lower than the IC50 for bicalutamide
same,"Pharmacokinetic behavior, residence time in blood",[7]; mice,metabolize fast
same,"Css, 10 mg/kg [μM]",[7],0.39 µM
same,"Css, 25 mg/kg [μM]",[7],0.43 µM
same,"Css, 50 mg/kg [μM]",[7],0.40 µM
same,"Activity (words, overall)",[6],particularly advantageous
same,"Rank order, most active to least active, relative PSA level (FIG. 4)",AR [8]; 500 nM,RD138>RD131>RD37>RD133>RD134>RD137>RD138>RD135>bicalutamide
same,"Decrease in PSA level of LNCaP-AR cells, comparison (FIG. 4)",AR [8]; at concentrations of 1000 nM,"greater decrease in PSA level of LNCaP-AR cells than RD133, RD134, and RD138"
same,"PSA level, LN/AR cell line, comparison",AR [8]; for a given dose / concentration,less than the PSA level upon exposure to RD128 and RD129
same,PSA levels of LN-AR cells (FIG. 14),AR [8],PSA levels decreased
"CNC(=O)c1ccc(N2C(=S)N(c3ccc(C#N)c(C(F)(F)F)c3)C(=O)C23CCC3)cc1 [RD161, N-methyl-4-[7-(4-cyano-3-trifluoromethylphenyl)-8-oxo-6-thioxo-5,7-diazaspiro[3.4]oct-5-yl]benzamide]",Luciferase activity in LNCaP-AR cells (FIG. 3),AR [5],acted to reduce luciferase activity
same,"Rank order, most active to least active, relative luciferase activity (FIG. 3)",AR [5]; 500 nM,RD152>RD153>RD145>RD163>RD161=RD162>bicalutamide
same,"Luciferase activity, L1AR cell line (FIG. 24)",L1AR cell line,less than the luciferase activity upon exposure to RD149
"CNC(=O)c1ccc(N2C(=S)N(c3ccc(C#N)c(C(F)(F)F)c3)C(=O)C23CCC3)cc1F [RD162, N-methyl-4-[7-(4-cyano-3-trifluoromethylphenyl)-8-oxo-6-thioxo-5,7-diaza-spiro[3.4]oct-5-yl]-2-fluorobenzamide]",Luciferase activity in LNCaP-AR cells (FIG. 3),AR [5],acted to reduce luciferase activity
same,"Css, 10 mg/kg [μM]",[7],9.9 µM
same,"Css, 25 mg/kg [μM]",[7],10.7 µM
same,"Css, 50 mg/kg [μM]",[7],10.2 µM
same,"Tumor volume, 1 mg per kg body weight per day (FIG. 18)",[3]; 1 mg per kg per day,the rate of tumor increase decreased
same,"Tumor volume, 10 mg per kg body weight per day (FIG. 18)",[3]; 10 mg per kg per day,tumor size decreased with time
same,Photon emission associated with luciferase activity (FIG. 20),[3]; [9],decrease in photon emission
same,Tumor size (FIG. 20),[3]; [9],decrease or stabilization of tumor size
same,Photon emission associated with luciferase activity (FIG. 19),"[3]; 10 mg per kg per day, day 17 relative to day 0",decreased
same,Tumor growth / tumor volume over time (FIG. 11),[3],effective to prevent tumor growth and even to cause tumor shrinkage; also recorded: tumors decreased in size
same,Photon emission associated with luciferase activity (FIG. 12),[3],decreased
same,Photon emission associated with luciferase activity (FIG. 23),[4],decrease
same,Urogenital tract weight (FIG. 23),[4],decrease
same,"Luciferase activity, L1AR cell line (FIG. 24)",L1AR cell line,less than the luciferase activity upon exposure to RD149
same,PSA levels of LN-AR cells (FIG. 21),"AR [8]; doses of 100, 200, 500 and 1000 nM",decreased
same,PSA levels of LN-AR cells (FIG. 14),AR [8],PSA levels decreased
